Results published in patent US9452037B2, “Delivery of oral care products” (INTERNATIONAL SCIENTIFIC PTY LTD, priority 2010, dated 2016).

Assay: Tooth whitening of extracted human teeth with carbamide peroxide gel, delivered passively or with displaced dipolar magnetic elements in motion
Settings: for relative (%) change in tooth colour (reduction in yellow content), mean: 700 mg of 36% gel, 10 teeth; for relative (%) change in tooth colour (reduction in yellow content), mean / average shift from the yellow spectrum to the white spectrum, mean / change in colour luminosity, mean: 3 minutes daily for 5 days; for average shift from the yellow spectrum to the white spectrum, mean / change in colour luminosity, mean: 36% gel
Procedure: The ability of the devices of the present invention to deliver active agents (carbamide peroxide) through the dentine of teeth was tested.
20 human teeth were donated by a registered oral surgeon and stored in alcohol for 48 hours prior to ultrasonic cleaning and drying using warm air and absorbent paper. Teeth were divided into two groups. 10 teeth were allocated to the active group (exposed to pairs of displaced dipolar magnetic elements in motion) and 10 allocated to the passive delivery group (exposed to materials with no magnetic field but also in motion). Size, colour and degree of degeneration were matched between the groups.
Individual teeth were photographed using controlled light conditions before and after application of Carbamide Peroxide Gel using a 10 megapixel camera (Pentax Optio) digital camera. Commercial digital imaging software (Photoshop CS2 version 9), was used in CMYK mode to degenerate histograms and images of matched regions of enamel in tooth before and after application.
Each tooth was treated using 700 mg of 36% Carbaminde Peroxide based Tooth Whitening gel. This measure of gel was place on the surface of 10 sized matched pairs of displaced dipolar magnetic elements comprising flexible ETP008 magnetic material formed of a parallel linear array of displaced dipolar magnetic elements with common pole pairs of 450 gauss peak flux with a centre to centre spatial separation of 4 mm oscillated by electrical motor at a frequency of 3 Hz [this is also known as the field-in-motion or FIM group, or eM patch group]. The control group was placed on the surface of polystyrene cards and also oscillated at 3 Hz using the same motorized oscillation means. Teeth were placed horizontally into the carbamide peroxide gel mounds ensuring complete contact and coverage. After 3 minutes of exposure, teeth were removed, cleaned and preserved for the following day. This was repeated for 5 consecutive days.
Analysis was conducted using three measures of colour change. Relative change in percentage of yellow in the image, changes in the spectrum shift from yellow to white and in the luminosity level.
Relative change in the percentage of Yellow in the matched regions of enamel was taken as reflecting the change in the colour of the underlying dentin materials. Differences in the relative change in the Yellow spectrum were interpreted as reflecting the different penetrations rates of peroxide delivery through the enamel under active and passive conditions.
Changes in the spectrum medium point reflects change in colour from the yellow towards the white end of the spectrum. Again, differences in spectrum medium point location were interpreted as reflecting the different penetrations rates of peroxide delivery through the enamel under active and passive conditions.
Luminosity was recorded as a measure of brightness with changes reflecting different penetrations rates of peroxide delivery through the enamel under active and passive conditions.

[1] = Magnetic FIM (eM-patch): ETP008 array oscillated at 3 Hz
[2] = Passive: no magnetic field, oscillated at 3 Hz

NC(N)=O.OO [carbamide peroxide]
relative (%) change in tooth colour (reduction in yellow content), mean [1]: 43.98% | average shift from the yellow spectrum to the white spectrum, mean [1]: 36.20 | change in colour luminosity, mean [1]: 29.54 | average shift from the yellow spectrum to the white spectrum, mean [2]: 27.70 | change in colour luminosity, mean [2]: 21.09 | relative (%) change in tooth colour (reduction in yellow content), mean (Passive: polystyrene card oscillated at 3 Hz, no magnetic field): 29.58% | greater increase in luminosity than the passive group (magnetic elements in motion vs passive, p=0.023): 40% | greater reduction in yellow content compared to the passive group (magnetic elements in motion vs passive, p=0.025): 49% | average shift from yellow to white spectrum greater than the passive diffusion group (magnetic elements in motion vs passive, p=0.044): 31%
